Experiments:
[1] = molecular target: c-KIT kinase (Homo sapiens, UniProt P10721); experiment: c-KIT kinase Assay; type: biochemical; set-up: cKIT residues T544-V976; GST (N); TEV cleavage site (internal); purchased deCODE Biostructures; details: enzymatic assay, ATP 200 µM; read-out: KIT (wt) IC50
How it was run: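 This continuous spectrophotometric assay tracked c-KIT kinase turnover through NADH consumption at 340 nm, recorded for 2 hours at 30 °C. The enzyme construct from deCODE Biostructures carried an N-terminal tag, a GST-fusion sequence and a TEV cleavage site. Percent inhibition came from reaction rates over 0 to 1 h relative to a no-compound control, and IC50 values were derived with GraphPad Prism.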

[2] = molecular target: T1, c-KIT D816V kinase (Homo sapiens, UniProt P10721, D816V); experiment: c-KIT D816V kinase Assay; type: biochemical; details: enzymatic assay, ATP 200 uM
T1 construct: residues T544-V976 with N-terminal GST fusion; purchased deCODE Biostructures
T1 sequence (P10721 544-976 D816V): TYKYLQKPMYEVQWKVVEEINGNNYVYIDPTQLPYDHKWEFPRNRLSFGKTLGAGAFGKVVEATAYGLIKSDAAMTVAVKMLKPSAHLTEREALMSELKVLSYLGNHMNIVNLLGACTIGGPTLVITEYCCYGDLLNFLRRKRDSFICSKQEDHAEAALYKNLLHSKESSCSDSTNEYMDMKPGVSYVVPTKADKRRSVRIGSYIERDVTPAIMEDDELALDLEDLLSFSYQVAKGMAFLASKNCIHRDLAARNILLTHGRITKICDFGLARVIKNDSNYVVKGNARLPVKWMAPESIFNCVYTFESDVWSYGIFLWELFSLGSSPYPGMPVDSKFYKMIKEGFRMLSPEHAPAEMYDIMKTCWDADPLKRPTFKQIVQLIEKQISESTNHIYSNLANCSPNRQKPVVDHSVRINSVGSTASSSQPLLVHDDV
How it was run: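 Coupled assay in which NADH oxidation was tracked as decreasing absorbance at 340 nm, continuously for 5 hours at 30 °C after adding serially diluted compound. Enzyme: cKit residues T544-V976 with N-terminal tag, GST fusion and TEV cleavage site.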

[3] = molecular target: T2, c-KIT VVDV kinase (Homo sapiens, UniProt P10721, D816V/DEL559-560); experiment: cKIT-VVDV kinase Assay; type: biochemical; details: enzymatic assay; V559+V560 deletions and D816V mutation
T2 construct: This construct contains residues T544-V976 of cKit; GST (N); TEV cleavage site (internal); purchased deCODE Biostructures
T2 sequence (P10721 with tags, fused parts or gaps DEL559-560/D816V): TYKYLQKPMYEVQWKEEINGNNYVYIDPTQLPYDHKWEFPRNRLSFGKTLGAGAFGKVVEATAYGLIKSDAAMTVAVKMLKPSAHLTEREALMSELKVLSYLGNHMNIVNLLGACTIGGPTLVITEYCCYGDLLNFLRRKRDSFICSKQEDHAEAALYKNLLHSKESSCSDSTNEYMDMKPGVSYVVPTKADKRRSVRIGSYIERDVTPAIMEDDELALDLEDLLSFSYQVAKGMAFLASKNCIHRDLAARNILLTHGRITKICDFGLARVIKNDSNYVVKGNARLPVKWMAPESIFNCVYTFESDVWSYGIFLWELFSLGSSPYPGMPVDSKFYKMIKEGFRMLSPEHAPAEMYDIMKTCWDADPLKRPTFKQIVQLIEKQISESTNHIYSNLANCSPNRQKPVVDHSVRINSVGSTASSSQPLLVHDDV
Description: In this assay, the oxidation of NADH (measured by decrease in absorbance at 340 nm) was continuously monitored spectrophotometrically. […] The inhibition reaction was started by mixing serial diluted test compound with the above reaction mixture. The absorption at 340 nm was monitored continuously for 5 hours at 30 °C on Synergy 2 plate reader (BioTech). […] The protein construct was prepared by deCODE Biostructures using procedures known in the art. […] This construct is identical to Seq ID no.

[4] = molecular target: T3, c-KIT T670I kinase (Homo sapiens, UniProt P10721, T670I); experiment: c-KIT T670I kinase assay; type: biochemical; details: enzymatic assay
T3 construct: The construct contains residues T544-V976 of cKit; GST (N); TEV cleavage site (internal); purchased deCODE Biostructures
T3 sequence (P10721 544-976 T670I): as the sequence (P10721 544-976 D816V) above, with T127I, V273D counted along it
How it was run: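 Enzyme: GST-fused, N-terminally tagged cKit bearing T670I, with TEV cleavage site. Reaction started by mixing compound dilutions with reaction mix; activity read continuously over 5 h at 30 °C as loss of 340 nm absorbance from NADH consumption.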

[5] = molecular target: T4, c-KIT V654A kinase (Homo sapiens, UniProt P10721, V654A); experiment: c-KIT V654A Kinase Assay; type: biochemical; details: enzymatic assay, ATP 200 µM
T4 construct: residues T544-V976 with N-terminal GST fusion; purchased deCODE Biostructures
T4 sequence (P10721 544-976 V654A): as the sequence (P10721 544-976 D816V) above, with V111A, V273D counted along it
How it was run: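 Kinase activity tracked by coupled NADH consumption, monitored continuously at 340 nm over 6 h at 30 °C after serially diluted compound was mixed in to start inhibition. Enzyme used was a GST-fused, N-terminally tagged cKIT T544–V976 construct with a TEV cleavage site.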

[6] = system: Phospho-KIT (Tyr719); experiment: GIST48 KIT Western Blot; type: cell-based; details: GIST48 cells, 4 hours, serum-free medium; read-out: pKIT suppression by western blot analysi GIST48
Description: (§1) GIST48, GIST430, and GIST882 cells were obtained from J. Fletcher (Brigham and Women's Hospital, Boston, MA). GIST T1 cells were obtained from B. Rubin (Cleveland Clinic, Cleveland, OH) and Professor Takahiro Taguchi (Kochi Medical School, Nankoku, Kochi, Japan). […] GIST430 cells were grown in Ham's F10 medium supplemented with 15% characterized fetal bovine serum (Invitrogen, Carlsbad, CA), 30 mg/L bovine pituitary extract (BD Biosciences, San Jose, CA), 0.5% Mito+ serum extender (BD Biosciences, San Jose, CA), 1 unit/mL penicillin G, 1 µg/ml streptomycin, and 0.29 mg/mL L-glutamine at 37 °C, 5%CO2, 95% humidity. GIST T1 cells were grown in DMEM medium supplemented with 10% characterized fetal bovine serum (Invitrogen, Carlsbad, CA), 1 unit/mL penicillin G, 1 µg/ml streptomycin, and 0.29 mg/mL L-glutamine at 37 °C, 5% CO2, and 95% humidity.
(§2) Two hundred fifty thousand cells were added per well in a 24-well tissue-culture treated plate. […] Medium was aspirated, cells were washed with PBS, and serum-free RPMI1640 medium was added. […] Cells were washed with PBS, then lysed. Cell lysates were separated by SDS-PAGE and transferred to PVDF. Phospho-KIT (Tyr719) was detected using an antibody from Cell Signaling Technology (Beverly, MA), ECL Plus detection reagent (GE Healthcare, Piscataway, NJ) and a Molecular Devices Storm 840 phosphorimager in fluorescence mode. Blots were stripped and probed for total KIT using an antibody from Santa Cruz Biotech (Santa Cruz, CA). IC50 values were calculated using Prism software (Graphpad, San Diego, CA).

[7] = system: Phospho-KIT (Tyr719); experiment: GIST430 KIT Western Blot; type: cell-based; details: GIST430 cells, 4 hours, serum-free medium; read-out: pKIT suppression by western blot analysi GIST430
Description: as §1
as §2, with “One” for “Two”, “Ham's F10” for “RPMI1640”

[8] = molecular target: T5, Phospho-KIT (Tyr719) (Homo sapiens, UniProt P10721, K642E); experiment: GIST882 KIT Western Blot; type: cell-based; details: GIST882 cells, 4 hours, serum-free medium; read-out: pKIT suppression by western blot analysi GIST 882
T5 construct: endogenous in cells; host or cells: GIST882
T5 sequence (P10721 26-976 K642E): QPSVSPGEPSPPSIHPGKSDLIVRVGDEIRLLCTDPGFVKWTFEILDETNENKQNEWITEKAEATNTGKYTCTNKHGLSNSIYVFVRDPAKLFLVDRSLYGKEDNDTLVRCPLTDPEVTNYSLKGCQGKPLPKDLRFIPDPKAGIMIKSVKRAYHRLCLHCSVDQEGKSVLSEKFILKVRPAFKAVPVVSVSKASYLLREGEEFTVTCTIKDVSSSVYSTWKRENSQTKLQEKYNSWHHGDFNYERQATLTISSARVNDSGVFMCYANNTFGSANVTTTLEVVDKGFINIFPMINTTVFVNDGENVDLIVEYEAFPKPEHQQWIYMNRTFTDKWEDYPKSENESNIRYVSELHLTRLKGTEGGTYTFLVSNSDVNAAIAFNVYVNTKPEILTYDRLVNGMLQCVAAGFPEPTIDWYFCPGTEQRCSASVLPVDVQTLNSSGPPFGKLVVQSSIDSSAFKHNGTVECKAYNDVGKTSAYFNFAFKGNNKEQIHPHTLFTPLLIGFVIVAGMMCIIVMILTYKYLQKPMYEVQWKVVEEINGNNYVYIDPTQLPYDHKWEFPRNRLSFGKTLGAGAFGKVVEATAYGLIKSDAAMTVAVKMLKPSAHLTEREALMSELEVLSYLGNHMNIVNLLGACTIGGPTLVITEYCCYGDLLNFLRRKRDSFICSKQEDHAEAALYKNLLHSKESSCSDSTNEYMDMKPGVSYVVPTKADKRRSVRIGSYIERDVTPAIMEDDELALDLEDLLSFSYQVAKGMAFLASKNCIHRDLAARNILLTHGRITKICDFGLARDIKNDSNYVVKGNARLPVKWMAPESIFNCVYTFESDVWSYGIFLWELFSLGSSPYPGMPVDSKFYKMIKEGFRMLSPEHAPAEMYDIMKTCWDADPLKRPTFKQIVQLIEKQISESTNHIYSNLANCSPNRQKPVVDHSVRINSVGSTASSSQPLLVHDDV
Description: as §1, §2

[9] = molecular target: T6, c-KIT D816H kinase (Homo sapiens, UniProt P10721, D816H); experiment: c-KIT D816H Kinase Assay; type: biochemical; details: enzymatic assay, ATP 200 µM
T6 construct: The construct contains residues T544-V976 of cKit; GST (N); TEV cleavage site (internal); purchased deCODE Biostructures
T6 sequence (P10721 544-976 D816H): as the sequence (P10721 544-976 D816V) above, with V273H counted along it
How it was run: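 Mutant cKit enzyme, expressed as a GST-fusion construct carrying an N-terminal tag and TEV site, was mixed with serially diluted compound to start reactions. Activity tracked via NADH consumption, read continuously at 340 nm over 6 hours at 30 °C.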

Sequence of c-KIT kinase (P10721 544-976): as the sequence (P10721 544-976 D816V) above, with V273D counted along it

CCn1c(=O)c(-c2cc(NC(=O)Nc3csc4ccccc34)c(F)cc2F)cc2cnc(NC)cc21 [Example 19, 1-(benzo[b]thiophen-3-yl)-3-(5-(1-ethyl-7-(methylamino)-2-oxo-1,2-dihydro-1,6-naphthyridin-3-yl)-2,4-difluorophenyl)urea]
IC50 [1]: < 10 nM | IC50 [2]: < 10 nM | IC50 [3]: 10 to 100 nM

CNc1cc2c(cn1)cc(-c1cc(NC(=O)Nc3cccc(C#N)c3)c(F)cc1Cl)c(=O)n2C [Example 9, 1-(4-chloro-2-fluoro-5-(1-methyl-7-(methylamino)-2-oxo-1,2-dihydro-1,6-naphthyridin-3-yl)phenyl)-3-(3-cyanophenyl)urea]
IC50 [1]: < 10 nM | IC50 [2]: 10 to 100 nM | IC50 [3]: 10 to 100 nM | IC50 [4]: 10 to 100 nM

CNc1cc2c(cn1)cc(-c1cc(NC(=O)Nc3ccccc3)c(F)cc1Cl)c(=O)n2C [Example 7, 1-(4-chloro-2-fluoro-5-(1-methyl-7-(methylamino)-2-oxo-1,2-dihydro-1,6-naphthyridin-3-yl)phenyl)-3-phenylurea]
IC50 [2]: 10 to 100 nM | IC50 [3]: 10 to 100 nM | IC50 [4]: 10 to 100 nM

CNc1cc2c(cn1)cc(-c1cc(NC(=O)Nc3csc4ccccc34)c(F)cc1C)c(=O)n2C [Example 13, 1-(benzo[b]thiophen-3-yl)-3-(2-fluoro-4-methyl-5-(1-methyl-7-(methylamino)-2-oxo-1,2-dihydro-1,6-naphthyridin-3-yl)phenyl)urea]
IC50 [2]: 10 to 100 nM | IC50 [3]: < 10 nM | IC50 [4]: 10 to 100 nM

CCn1c(=O)c(-c2ccc(F)c(NC(=O)Nc3cccc(C#N)c3)c2)cc2cnc(NC)cc21 [Example 12, 1-(3-cyanophenyl)-3-(5-(1-ethyl-7-(methylamino)-2-oxo-1,2-dihydro-1,6-naphthyridin-3-yl)-2-fluorophenyl)urea]
IC50 [2]: > 1000 nM | IC50 [3]: 100 to 1000 nM

CCn1c(=O)c(-c2cc(NC(=O)Nc3ccccc3)c(F)cc2Cl)cc2cnc(NC(=O)N3CC[C@@H](N(C)C)C3)cc21 [Example 84, (R)-N-(3-(2-chloro-4-fluoro-5-(3-phenylureido)phenyl)-1-ethyl-2-oxo-1,2-dihydro-1,6-naphthyridin-7-yl)-3-(dimethylamino)pyrrolidine-1-carboxamide]
IC50 [5]: 100 to 1000 nM | IC50 [1]: < 10 nM | IC50 [2]: 10 to 100 nM | IC50 [6]: 10 to 100 nM | IC50 [7]: 10 to 100 nM | IC50 [4]: 10 to 100 nM | IC50 [8]: 10 to 100 nM | IC50 [9]: 10 to 100 nM

CCn1c(=O)c(-c2cc(NC(=O)Nc3cccc(F)c3)c(F)cc2C)cc2cnc(NC3CC3)cc21 [Example 45, 1-(5-(7-(cyclopropylamino)-1-ethyl-2-oxo-1,2-dihydro-1,6-naphthyridin-3-yl)-2-fluoro-4-methylphenyl)-3-(3-fluorophenyl)urea]
IC50 [5]: 10 to 100 nM | IC50 [1]: < 10 nM | IC50 [2]: 10 to 100 nM | IC50 [3]: > 1000 nM | IC50 [4]: 10 to 100 nM | IC50 [9]: 10 to 100 nM

CCn1c(=O)c(-c2ccc(F)c(NC(=O)Nc3cccc4ccccc34)c2)cc2cnc(NC)cc21 [Example 2, 1-(5-(1-ethyl-7-(methylamino)-2-oxo-1,2-dihydro-1,6-naphthyridin-3-yl)-2-fluorophenyl)-3-(naphthalen-1-yl)urea]
IC50 [2]: 100 to 1000 nM | IC50 [3]: 100 to 1000 nM | IC50 [4]: < 10 nM

CNc1cc2c(cn1)cc(-c1ccc(F)c(NC(=O)Nc3ccccc3)c1)c(=O)n2C(C)C [Example 5, 1-(2-fluoro-5-(1-isopropyl-7-(methylamino)-2-oxo-1,2-dihydro-1,6-naphthyridin-3-yl)phenyl)-3-phenylurea]
IC50 [2]: 100 to 1000 nM | IC50 [3]: 100 to 1000 nM

CCn1c(=O)c(-c2cc(NC(=O)Nc3cccc(C#N)c3)c(F)cc2F)cc2cnc(NC)cc21 [Example 18, 1-(3-cyanophenyl)-3-(5-(1-ethyl-7-(methylamino)-2-oxo-1,2-dihydro-1,6-naphthyridin-3-yl)-2,4-difluorophenyl)urea]
IC50 [1]: < 10 nM | IC50 [2]: 100 to 1000 nM | IC50 [3]: 10 to 100 nM | IC50 [4]: 10 to 100 nM

CNc1cc2c(cn1)cc(-c1cc(NC(=O)Nc3cccc4ccccc34)c(F)cc1Cl)c(=O)n2C [Example 8, 1-(4-chloro-2-fluoro-5-(1-methyl-7-(methylamino)-2-oxo-1,2-dihydro-1,6-naphthyridin-3-yl)phenyl)-3-(naphthalen-1-yl)urea]
IC50 [2]: 10 to 100 nM | IC50 [3]: 100 to 1000 nM | IC50 [4]: 10 to 100 nM

CCn1c(=O)c(-c2cc(NC(=O)Nc3ccccc3)c(F)cc2F)cc2cnc(NCCOC)cc21 [Example 36, 1-(5-(1-ethyl-7-(2-methoxyethylamino)-2-oxo-1,2-dihydro-1,6-naphthyridin-3-yl)-2,4-difluorophenyl)-3-phenylurea]
IC50 [5]: 10 to 100 nM | IC50 [1]: < 10 nM | IC50 [2]: 10 to 100 nM | IC50 [3]: 10 to 100 nM | IC50 [6]: 100 to 1000 nM | IC50 [7]: 100 to 1000 nM | IC50 [4]: 100 to 1000 nM | IC50 [9]: 10 to 100 nM

CCn1c(=O)c(-c2c(Cl)ccc(NC(=O)Nc3ccccc3)c2F)cc2cnc(NC)cc21 [Example 26, 1-(4-chloro-3-(1-ethyl-7-(methylamino)-2-oxo-1,2-dihydro-1,6-naphthyridin-3-yl)-2-fluorophenyl)-3-phenylurea]
IC50 [1]: 10 to 100 nM | IC50 [2]: > 1000 nM | IC50 [3]: > 1000 nM

CCn1c(=O)c(-c2cc(NC(=O)Nc3ccccc3)ccc2Cl)cc2cnc(NC)cc21 [Example 33, 1-(4-chloro-3-(1-ethyl-7-(methylamino)-2-oxo-1,2-dihydro-1,6-naphthyridin-3-yl)phenyl)-3-phenylurea]
IC50 [5]: < 10 nM | IC50 [1]: < 10 nM | IC50 [2]: 10 to 100 nM | IC50 [3]: 100 to 1000 nM | IC50 [7]: 10 to 100 nM | IC50 [4]: 100 to 1000 nM | IC50 [9]: 10 to 100 nM

CNc1cc2c(cn1)cc(-c1cc(NC(=O)Nc3cccc(F)c3F)c(F)cc1Cl)c(=O)n2C [Example 10, 1-(4-chloro-2-fluoro-5-(1-methyl-7-(methylamino)-2-oxo-1,2-dihydro-1,6-naphthyridin-3-yl)phenyl)-3-(2,3-difluorophenyl)urea]
IC50 [2]: 10 to 100 nM | IC50 [3]: 10 to 100 nM | IC50 [4]: 10 to 100 nM

— patent EP3722296B1, “DIHYDRONAPHTHYRIDINES AND RELATED COMPOUNDS USEFUL AS KINASE INHIBITORS FOR THE TREATMENT OF PROLIFERATIVE DISEASES” (Deciphera Pharmaceuticals, LLC, priority 2012, dated 2013)
